Laboratory results from paper PMC9763333, “In vitro characterization of immune modulating drug-eluting immunobeads towards transarterial embolization in cancer” (Scientific Reports, 2022).
Values joined by “and” are separate entries in the source; they are usually repeats but may differ in a detail not shown here. Identical values can stand only once. “Also recorded” adds a separate entry of the source.

Tests used:
Type in all cases: physicochemical
[1] = Drug solubilization by salt formation in acid; settings: T in °C in parentheses in the cell (20.1 or 21.1)
Protocol: The base form of each drug was suspended in deionized water and titrated with 0.1 N hydrochloric acid (Fisher Scientific, Hampton, NH) while stirring until all the base was solubilized and the volume adjusted to a final concentration of 2.5 mg/mL. The resulting solution was frozen, then lyophilized to yield solid drug-hydrochloride salt or used in its solubilized form for loading into DC Bead LUMI. […] Doxorubicin.HCl was readily solubilized and used without modification. […] A ZORBAX Eclipse Plus C8 reversed-phase column (Agilent) and UV detector at wavelength of 230 nm were used for GS-9620 analysis. The decomposition product of GS-9620 was analyzed with reversed phase high-performance liquid chromatography (Rp-HPLC) and LC/MS.

[2] = Drug loading into DC Bead LUMI
Protocol: DC Bead LUMI was analyzed for its elemental composition by MEDAC Inc. […] Drug loading was performed in triplicate as previously reported[45] with slight modifications. […] Washing of beads is often a critical step in drug release studies as any drug left unbound to the beads affects the release profile and exaggerates the early burst release. […] However, washing was discontinued for TLR drugs as drug was continually observed even after multiple washes. […] The amount of drug loaded at the specified time points was calculated by subtracting the amount of drug remaining from the initial amount of drug in the loading solution and the cumulative amount of drug withdrawn for sampling. The maximum drug loaded in the beads was calculated once no further change in the concentration in the loading solution could be measured and before washing the beads. The relative percent drug loaded was defined as the maximum amount of drug loaded as a percent of the amount of SO3^- ions available in the beads on a molar basis using the following formula and the results are presented as the mean ± SD.

[3] = Drug release from DC Bead LUMI in saline; settings: for release in saline from DC Bead LUMI after multiple washes in deionized water: single replicates
Protocol: […] Briefly, drug-loaded DC Bead LUMI or LC Bead (62.5 µL) were placed in vessels with 50 mL of saline ([…], pH 7.4) and were agitated with upright rocking motion at a set maximum rocking speed of 10 (70 rpm) for 144 h at 37 °C using Ward's® Rotating Mixer. At scheduled time intervals identical to the loading time points, 1 mL of release media was withdrawn and used for drug quantification. To maintain 50 mL total elution volume, 1 mL of fresh saline pre heated to 37 °C was replaced at each timepoint. […] 2.4. The cumulative amount of drug released at each time point was calculated by multiplying the concentration of each sample aliquot by the total volume (50 mL) of release media and adding the sum of the amount of drug removed for sampling at prior time points. […] The 50 mL volume was chosen to ensure infinite sink conditions where the maximum possible concentration of eluted drug would be at least 10 times more dilute than the maximum solubility. This ensures the rate of release is not affected by solution concentration but is only a function of interactions of the bead, drug, and saline.

[4] = Washing of drug-loaded beads with deionized water and microscopic appearance
Protocol: Drug loading was performed in triplicate as previously reported[45] with slight modifications. […] Washing of beads is often a critical step in drug release studies as any drug left unbound to the beads affects the release profile and exaggerates the early burst release. […] However, washing was discontinued for TLR drugs as drug was continually observed even after multiple washes. […] The amount of drug loaded at the specified time points was calculated by subtracting the amount of drug remaining from the initial amount of drug in the loading solution and the cumulative amount of drug withdrawn for sampling. The maximum drug loaded in the beads was calculated once no further change in the concentration in the loading solution could be measured and before washing the beads. The relative percent drug loaded was defined as the maximum amount of drug loaded as a percent of the amount of SO3^- ions available in the beads on a molar basis using the following formula and the results are presented as the mean ± SD.

In the case of `CC(C)Cn1cnc2c(N)nc3ccccc3c21` [IMQ, imiquimod], the “pH at which each drug dissolved for loading” value [1] is reported as 2.06 (20.1), the “Relative percent drug loaded in DC Bead LUMI over time” value ([2]; 5 min, single replicates) is reported as 27.7169% and 54.7567% and 47.2582% and the “Relative percent drug loaded in DC Bead LUMI over time” value ([2]; 15 min, single replicates) is reported as 44.3244% and 64.1912% and 77.4846%. For the same compound, the “Relative percent drug loaded in DC Bead LUMI over time” value ([2]; 30 min, single replicates) was 53.7652% and 98.7583% and 64.7248%, the “Relative percent drug loaded in DC Bead LUMI over time” value ([2]; 45 min, single replicates) was 63.5604% and 86.8486% and 80.4348% and the “Relative percent drug loaded in DC Bead LUMI over time” value ([2]; 60 min, single replicates) was 62.6391% and 89.327% and 89.6722%. The “Relative percent drug loaded in DC Bead LUMI over time” value ([2]; 120 min, single replicates) was 76.6569% and 94.7702% and 91.6603%, the “Relative percent drug loaded in DC Bead LUMI over time” value ([2]; 180 min, single replicates) was 84.3868% and 95.4708% and 91.4628% and the “Relative percent drug loaded in DC Bead LUMI over time” value ([2]; 240 min, single replicates) was 88.4335% and 96.0638% and 91.7809%. The “Relative percent drug loaded in DC Bead LUMI over time” value ([2]; 300 min, single replicates) was 89.1562% and 94.7965% and 91.1063%, the “Relative percent drug loaded in DC Bead LUMI over time” value ([2]; 360 min, single replicates) was 89.8821% and 93.7278% and 90.6691% and the “Relative percent drug loaded in DC Bead LUMI over time” value ([2]; 420 min, single replicates) was 89.552% and 95.0881% and 90.3963%. For the same compound, the “Relative percent drug loaded in DC Bead LUMI over time” value ([2]; 480 min, single replicates) was 88.9036% and 95.9382% and 95.3273%, the “Relative percent drug loaded in DC Bead LUMI over time” value ([2]; 1440 min, single replicates) was 88.6238% and 94.7298% and 89.6159% and the “Relative percent drug loaded in DC Bead LUMI over time” value ([2]; 2880 min, single replicates) was 89.5863% and 97.1979% and 88.3669%. The “Relative percent drug loaded in DC Bead LUMI over time” value ([2]; 4320 min, single replicates) was 89.4163% and 95.3897% and 90.7133%, the “Relative percent drug loaded in DC Bead LUMI over time” value ([2]; 8640 min, single replicates) was 89.5369% and 92.0678% and 86.7361% and the “loading behaviour” value ([2]; DC Bead LUMI) was “Fast loading”. For the same compound, the “Relative percent drug loaded (maximum, percent of SO3− available on a molar basis)” value ([2]; DC Bead LUMI, mean (n = 3)) was 95% and 94.66%, the “equivalent of drug loaded to sulfonated bead” value ([2]; DC Bead LUMI, mean ± SD) was 0.27 ± 0.01 mM drug/ml beads and the Maximum drug loaded ([2]; DC Bead LUMI, mean ± SD, n = 3, base form except Dox (salt form)) was 65.28 ± 3.09 mg drug/ml beads. For the same compound, the “Maximum drug loaded (Triplicate), %” value ([2]; DC Bead LUMI, single replicates) was 89.8821% and 98.7583% and 95.3273%, the “Drug: sulfonate” value ([2]; molar ratio at maximum loading, DC Bead LUMI) was 0.946 and the “Theoretical maximum loading level based on SO3− contents” value ([2]; per mL DC Bead LUMI, assuming 1:1 drug to sulfonate) was 68.97 mg. For the same compound, the “release in saline from DC Bead LUMI after multiple washes in deionized water” value (shortened to “release in saline from DC Bead LUMI”) ([3]; 5 min) was 3.738 mg/mL of beads and 1.905 mg/mL of beads and 0.7403 mg/mL of beads, the “release in saline from DC Bead LUMI” value ([3]; 15 min) was 4.599 mg/mL of beads and 2.598 mg/mL of beads and 1.25 mg/mL of beads and the “release in saline from DC Bead LUMI” value ([3]; 30 min) was 6.014 mg/mL of beads and 2.518 mg/mL of beads and 1.755 mg/mL of beads. For the same compound, the “release in saline from DC Bead LUMI” value ([3]; 45 min) was 5.636 mg/mL of beads and 3.25 mg/mL of beads and 2.648 mg/mL of beads, the “release in saline from DC Bead LUMI” value ([3]; 60 min) was 6.005 mg/mL of beads and 3.196 mg/mL of beads and 2.336 mg/mL of beads and the “release in saline from DC Bead LUMI” value ([3]; 120 min) was 7.034 mg/mL of beads and 4.188 mg/mL of beads and 2.86 mg/mL of beads. The “release in saline from DC Bead LUMI” value ([3]; 180 min) was 9.042 mg/mL of beads and 4.426 mg/mL of beads and 3.116 mg/mL of beads, the “release in saline from DC Bead LUMI” value ([3]; 240 min) was 8.512 mg/mL of beads and 4.6972 mg/mL of beads and 3.19 mg/mL of beads and the “release in saline from DC Bead LUMI” value ([3]; 300 min) was 8.8991 mg/mL of beads and 4.841 mg/mL of beads and 3.452 mg/mL of beads. For the same compound, the “release in saline from DC Bead LUMI” value ([3]; 360 min) was 9.596 mg/mL of beads and 5.306 mg/mL of beads and 3.529 mg/mL of beads, the “release in saline from DC Bead LUMI” value ([3]; 420 min) was 9.49 mg/mL of beads and 5.808 mg/mL of beads and 4.0861 mg/mL of beads and the “release in saline from DC Bead LUMI” value ([3]; 480 min) was 9.552 mg/mL of beads and 5.445 mg/mL of beads and 3.722 mg/mL of beads. For the same compound, the “release in saline from DC Bead LUMI” value ([3]; 1440 min) was 10.8637 mg/mL of beads and 7.881 mg/mL of beads and 6.056 mg/mL of beads, the “release in saline from DC Bead LUMI” value ([3]; 2880 min) was 12.3732 mg/mL of beads and 7.686 mg/mL of beads and 6.267 mg/mL of beads and the “release in saline from DC Bead LUMI” value ([3]; 4320 min) was 15.5973 mg/mL of beads and 8.751 mg/mL of beads and 7.964 mg/mL of beads. The “release in saline from DC Bead LUMI” value ([3]; 8640 min) was 14.5448 mg/mL of beads and 10.1106 mg/mL of beads and 7.947 mg/mL of beads, the “release behaviour in saline” value ([3]; DC Bead LUMI) was “rapid release” and the “removal of drug from beads by repeated washing with deionized water” value ([4]; DC Bead LUMI) was “partially removed”. The “aggregation of drug during washing / elution” value ([4]; deionized water and saline, microscopy) was “Aggregation of IMQ was observed; also recorded: formed aggregates; also recorded: exhibited aggregation”.
